Assay results taken from the supplement of paper PMC11451515.

Columns and labels:
Conditions in all cases: 48 h
P12-Ichikawa [1] = assay: cell viability relative to DMSO control; higher = less cytotoxic
In short: (§1)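 Viability values are per-plate percentages of DMSO wells, with background from cell-free wells. Library compounds in DMSO were pin-dosed, in an 11-point threefold series from 47 μM to 0.79 nM, onto NOMO1 or SEM (500 cells/well) or P12-Ichikawa (1000 cells/well) leukemia cells in 1536-well plates (5 μl). Those cells had been adapted for at least four passages in each medium, and CellTiter-Glo One luminescence was read after 48 h at 37°C.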

NOMO1 [2] = assay: as above
In short: as §1

SEM cells [3] = assay: as above
In short: as §1

P12-Ichikawa [4] = assay: AUC of viability dose-response curve (% viability x log10 dose units); higher = less sensitive
In short: (§2)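 Seeding of medium-adapted leukemia cells was at 500 or 1000 cells/well in 1536-well plates, followed by 48 h at 37°C with library compounds in DMSO at 11 threefold doses from 47 μM to 0.79 nM. CellTiter-Glo One luminescence was normalised per plate to DMSO and cell-free wells and fitted as a four-parameter log-logistic function of log10 dose. Area under the curve was integrated by trapezoidal rule, with curves exceeding full viability scaled and curves failing quality control removed.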

NOMO1 [5] = assay: as above
In short: as §2

SEM cells [6] = assay: as above
In short: as §2

CCOC(=O)[C@@H](N)Cc1ccc(-c2cc(O[C@H](c3ccc(Cl)cc3-n3ccc(C)n3)C(F)(F)F)nc(N)n2)cc1.O=C(O)CNC(=O)c1ccccc1
cell viability [%]
Conditions | NOMO1 [2] | P12-Ichikawa [1] | SEM cells [3]
HPLM + 10% dialyzed FBS, 0.000781 µM | 114 | 107 | 100
HPLM + 10% dialyzed FBS, 0.00234 µM | 111 | 110 | 129
HPLM + 10% dialyzed FBS, 0.00702 µM | 121 | 103 | 93.3
HPLM + 10% dialyzed FBS, 0.0211 µM | 125 | 112 | 133
HPLM + 10% dialyzed FBS, 0.0632 µM | 114 | 106 | 127
HPLM + 10% dialyzed FBS, 0.19 µM | 118 | 110 | 107
HPLM + 10% dialyzed FBS, 0.569 µM | 114 | 109 | 126
HPLM + 10% dialyzed FBS, 1.71 µM | 116 | 111 | 125
HPLM + 10% dialyzed FBS, 5.12 µM | 94.2 | 109 | 115
HPLM + 10% dialyzed FBS, 15.4 µM | 102 | 103 | 110
HPLM + 10% dialyzed FBS, 46.1 µM | 5.68 | 70.2 | 45.1
RPMI 5 mM glucose + 10% FBS, 0.000781 µM | 108 | 117 | 96.4
RPMI 5 mM glucose + 10% FBS, 0.00234 µM | 96.2 | 112 | 112
RPMI 5 mM glucose + 10% FBS, 0.00702 µM | 109 | 107 | 82.2
RPMI 5 mM glucose + 10% FBS, 0.0211 µM | 101 | 122 | 110
RPMI 5 mM glucose + 10% FBS, 0.0632 µM | 94.3 | 114 | 114
RPMI 5 mM glucose + 10% FBS, 0.19 µM | 90.3 | 121 | 103
RPMI 5 mM glucose + 10% FBS, 0.569 µM | 97.6 | 120 | 98.6
RPMI 5 mM glucose + 10% FBS, 1.71 µM | 103 | 122 | 113
RPMI 5 mM glucose + 10% FBS, 5.12 µM | 95.4 | 107 | 97.1
RPMI 5 mM glucose + 10% FBS, 15.4 µM | 90.1 | 96.2 | 115
RPMI 5 mM glucose + 10% FBS, 46.1 µM | 7.52 | 56.3 | 17.1
RPMI 5 mM glucose + 10% dialyzed FBS, 0.000781 µM | 102 | 109 | 106
RPMI 5 mM glucose + 10% dialyzed FBS, 0.00234 µM | 117 | 113 | 132
RPMI 5 mM glucose + 10% dialyzed FBS, 0.00702 µM | 102 | 107 | 111
RPMI 5 mM glucose + 10% dialyzed FBS, 0.0211 µM | 100 | 107 | 118
RPMI 5 mM glucose + 10% dialyzed FBS, 0.0632 µM | 97 | 102 | 102
RPMI 5 mM glucose + 10% dialyzed FBS, 0.19 µM | 98.6 | 113 | 119
RPMI 5 mM glucose + 10% dialyzed FBS, 0.569 µM | 122 | 110 | 120
RPMI 5 mM glucose + 10% dialyzed FBS, 1.71 µM | 105 | 108 | 111
RPMI 5 mM glucose + 10% dialyzed FBS, 5.12 µM | 98.3 | 107 | 109
RPMI 5 mM glucose + 10% dialyzed FBS, 15.4 µM | 88.6 | 103 | 117
RPMI 5 mM glucose + 10% dialyzed FBS, 46.1 µM | 4.2 | 44.1 | 24

AUC of viability dose-response curve
Conditions | NOMO1 [5] | P12-Ichikawa [4] | SEM cells [6]
HPLM + 10% dialyzed FBS | 449 | 466 | 462
RPMI 5 mM glucose + 10% FBS | 448 | 453 | 457
RPMI 5 mM glucose + 10% dialyzed FBS | 447 | 460 | 458

CN[C@@H]1[C@@H](O)[C@@H](O[C@@H]2[C@@H](O)[C@H](O[C@H]3O[C@H](CN)[C@@H](O)[C@H](O)[C@H]3O)[C@@H](N)C[C@H]2NC(=O)[C@@H](O)CN)OC[C@]1(C)O
cell viability [%]
Conditions | NOMO1 [2] | P12-Ichikawa [1] | SEM cells [3]
HPLM + 10% dialyzed FBS, 0.000781 µM | 120 | 123 | 116
HPLM + 10% dialyzed FBS, 0.00234 µM | 132 | 131 | 100
HPLM + 10% dialyzed FBS, 0.00702 µM | 115 | 124 | 108
HPLM + 10% dialyzed FBS, 0.0211 µM | 135 | 122 | 107
HPLM + 10% dialyzed FBS, 0.0632 µM | 148 | 128 | 91.9
HPLM + 10% dialyzed FBS, 0.19 µM | 130 | 120 | 105
HPLM + 10% dialyzed FBS, 0.569 µM | 140 | 126 | 105
HPLM + 10% dialyzed FBS, 1.71 µM | 110 | 113 | 98.9
HPLM + 10% dialyzed FBS, 5.12 µM | 113 | 110 | 98
HPLM + 10% dialyzed FBS, 15.4 µM | 103 | 108 | 102
HPLM + 10% dialyzed FBS, 46.1 µM | 120 | 108 | 97.1
RPMI 5 mM glucose + 10% FBS, 0.000781 µM | – | – | 118
RPMI 5 mM glucose + 10% FBS, 0.00234 µM | – | – | 116
RPMI 5 mM glucose + 10% FBS, 0.00702 µM | – | – | 125
RPMI 5 mM glucose + 10% FBS, 0.0211 µM | – | – | 129
RPMI 5 mM glucose + 10% FBS, 0.0632 µM | – | – | 129
RPMI 5 mM glucose + 10% FBS, 0.19 µM | – | – | 111
RPMI 5 mM glucose + 10% FBS, 0.569 µM | – | – | 123
RPMI 5 mM glucose + 10% FBS, 1.71 µM | – | – | 111
RPMI 5 mM glucose + 10% FBS, 5.12 µM | – | – | 111
RPMI 5 mM glucose + 10% FBS, 15.4 µM | – | – | 120
RPMI 5 mM glucose + 10% FBS, 46.1 µM | – | – | 124
RPMI 5 mM glucose + 10% dialyzed FBS, 0.000781 µM | 130 | – | 121
RPMI 5 mM glucose + 10% dialyzed FBS, 0.00234 µM | 115 | – | 124
RPMI 5 mM glucose + 10% dialyzed FBS, 0.00702 µM | 110 | – | 118
RPMI 5 mM glucose + 10% dialyzed FBS, 0.0211 µM | 127 | – | 125
RPMI 5 mM glucose + 10% dialyzed FBS, 0.0632 µM | 112 | – | 136
RPMI 5 mM glucose + 10% dialyzed FBS, 0.19 µM | 132 | – | 115
RPMI 5 mM glucose + 10% dialyzed FBS, 0.569 µM | 116 | – | 135
RPMI 5 mM glucose + 10% dialyzed FBS, 1.71 µM | 107 | – | 106
RPMI 5 mM glucose + 10% dialyzed FBS, 5.12 µM | 99.9 | – | 127
RPMI 5 mM glucose + 10% dialyzed FBS, 15.4 µM | 117 | – | 129
RPMI 5 mM glucose + 10% dialyzed FBS, 46.1 µM | 98.6 | – | 101

AUC of viability dose-response curve
Conditions | NOMO1 [5] | P12-Ichikawa [4] | SEM cells [6]
HPLM + 10% dialyzed FBS | 452 | 457 | 453
RPMI 5 mM glucose + 10% FBS | 457 | 449 | 463
RPMI 5 mM glucose + 10% dialyzed FBS | 440 | 411 | 468

CN(C)C1CCN(C(=O)c2ccc(NC(=O)Nc3nc(N4CCOCC4)nc(N4CCOCC4)n3)cc2)CC1
cell viability [%]
Conditions | NOMO1 [2] | P12-Ichikawa [1] | SEM cells [3]
HPLM + 10% dialyzed FBS, 0.000781 µM | 85.5 | 91.2 | 83.9
HPLM + 10% dialyzed FBS, 0.00234 µM | 100 | 92 | 92.1
HPLM + 10% dialyzed FBS, 0.00702 µM | 80 | 101 | 81.5
HPLM + 10% dialyzed FBS, 0.0211 µM | 67.8 | 91.7 | 67.4
HPLM + 10% dialyzed FBS, 0.0632 µM | 60.6 | 75.9 | 61.7
HPLM + 10% dialyzed FBS, 0.19 µM | 52.9 | 76 | 49.7
HPLM + 10% dialyzed FBS, 0.569 µM | 43.1 | 66.4 | 41.8
HPLM + 10% dialyzed FBS, 1.71 µM | 44.9 | 64.2 | 31.2
HPLM + 10% dialyzed FBS, 5.12 µM | 40.5 | 57.8 | 30.9
HPLM + 10% dialyzed FBS, 15.4 µM | 28.7 | 34.3 | 23.8
HPLM + 10% dialyzed FBS, 46.1 µM | 25.1 | 20.9 | 19.3
RPMI 5 mM glucose + 10% FBS, 0.000781 µM | 84.8 | 85.6 | 87.9
RPMI 5 mM glucose + 10% FBS, 0.00234 µM | 89.3 | 84.9 | 78.9
RPMI 5 mM glucose + 10% FBS, 0.00702 µM | 90.5 | 82.6 | 94.3
RPMI 5 mM glucose + 10% FBS, 0.0211 µM | 84.5 | 73 | 75.1
RPMI 5 mM glucose + 10% FBS, 0.0632 µM | 64.9 | 56 | 65.3
RPMI 5 mM glucose + 10% FBS, 0.19 µM | 63.6 | 58.5 | 48.4
RPMI 5 mM glucose + 10% FBS, 0.569 µM | 52.7 | 48.2 | 39.3
RPMI 5 mM glucose + 10% FBS, 1.71 µM | 49 | 42.2 | 27.4
RPMI 5 mM glucose + 10% FBS, 5.12 µM | 43.4 | 35.4 | 25.6
RPMI 5 mM glucose + 10% FBS, 15.4 µM | 36.5 | 34.7 | 17.8
RPMI 5 mM glucose + 10% FBS, 46.1 µM | 18.2 | 22.9 | 11.9
RPMI 5 mM glucose + 10% dialyzed FBS, 0.000781 µM | 84.9 | 83.7 | 78.1
RPMI 5 mM glucose + 10% dialyzed FBS, 0.00234 µM | 83.8 | 85.5 | 85.8
RPMI 5 mM glucose + 10% dialyzed FBS, 0.00702 µM | 83.9 | 80.6 | 79.4
RPMI 5 mM glucose + 10% dialyzed FBS, 0.0211 µM | 70.9 | 78.6 | 70.9
RPMI 5 mM glucose + 10% dialyzed FBS, 0.0632 µM | 60.8 | 61.6 | 57.2
RPMI 5 mM glucose + 10% dialyzed FBS, 0.19 µM | 53.3 | 56.2 | 52.5
RPMI 5 mM glucose + 10% dialyzed FBS, 0.569 µM | 45.8 | 47.4 | 41.9
RPMI 5 mM glucose + 10% dialyzed FBS, 1.71 µM | 44.4 | 43.4 | 33.4
RPMI 5 mM glucose + 10% dialyzed FBS, 5.12 µM | 39.6 | 41.5 | 32.1
RPMI 5 mM glucose + 10% dialyzed FBS, 15.4 µM | 38 | 34 | 22
RPMI 5 mM glucose + 10% dialyzed FBS, 46.1 µM | 22.8 | 20.1 | 14.6

AUC of viability dose-response curve
Conditions | NOMO1 [5] | P12-Ichikawa [4] | SEM cells [6]
HPLM + 10% dialyzed FBS | 271 | 340 | 252
RPMI 5 mM glucose + 10% FBS | 296 | 270 | 248
RPMI 5 mM glucose + 10% dialyzed FBS | 272 | 275 | 247
